# In PubChem BioAssay AID2060910 (Molecular Pharmacology Branch, DTP, NCI, 2025):
# pIC50: −log10 of the molar value.
# Test system: 242566-281-R-J2-PDC complex spheroid viability
# Test: Anticancer human tumor 242566-281-R-J2-PDC patient-derived pancreatic carcinoma cell line growth inhibition [RAS]
# Settings: for pIC50: curve of first compound; for viability, T/C: stronger effect = lower value
# How it was run: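 Multi-cell-type spheroids: tumor cells plus HUVEC endothelial cells and mesenchymal stem cells. RAS-pathway inhibitors were combined with targeted agents, each dosed in half-log steps down from clinical Cmax, or from 10 microM when Cmax was unknown.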
# 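Note: spheroids exposed to compound for 7 days before readout.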
# 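Throughout, for viability, T/C: 100% = DMSO vehicle control wells.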
smiles,measurement,setting,value
CCc1c2c(nc3ccc(O)cc13)-c1cc3c(c(=O)n1C2)COC(=O)[C@]3(O)CC + CCn1c(-c2cccnc2C(C)OC)c2c3cc(ccc31)N1CCOC(CC(NC(=O)C(C(C)C)N(C)C(=O)C3(F)CCN(C(=O)C#CC(C)(C)N(C)C)CC3)C(=O)N3CCCC(N3)C(=O)OCC(C)(C)C2)C1,pIC50,second compound 0.000949 µM,7.74
same,pIC50,second compound 0.003 µM,7.77
same,pIC50,second compound 0.00949 µM,7.69
same,pIC50,second compound 0.03 µM,7.70
same,pIC50,second compound 0.0949 µM,7.73
same,pIC50,second compound 0.3 µM,7.96
same,"viability, T/C","second compound 0.000949 µM, first compound 0.000949 µM",101%
same,"viability, T/C","second compound 0.000949 µM, first compound 0.003 µM",92.3%
same,"viability, T/C","second compound 0.000949 µM, first compound 0.00949 µM",59.5%
same,"viability, T/C","second compound 0.000949 µM, first compound 0.03 µM",39.7%
same,"viability, T/C","second compound 0.000949 µM, first compound 0.0949 µM",25.5%
same,"viability, T/C","second compound 0.000949 µM, first compound 0.3 µM",11.6%
same,"viability, T/C","second compound 0.003 µM, first compound 0.000949 µM",106%
same,"viability, T/C","second compound 0.003 µM, first compound 0.003 µM",79.5%
same,"viability, T/C","second compound 0.003 µM, first compound 0.00949 µM",63.7%
same,"viability, T/C","second compound 0.003 µM, first compound 0.03 µM",37.4%
same,"viability, T/C","second compound 0.003 µM, first compound 0.0949 µM",24.7%
same,"viability, T/C","second compound 0.003 µM, first compound 0.3 µM",10.6%
same,"viability, T/C","second compound 0.00949 µM, first compound 0.000949 µM",105%
same,"viability, T/C","second compound 0.00949 µM, first compound 0.003 µM",76.1%
same,"viability, T/C","second compound 0.00949 µM, first compound 0.00949 µM",68.5%
same,"viability, T/C","second compound 0.00949 µM, first compound 0.03 µM",45%
same,"viability, T/C","second compound 0.00949 µM, first compound 0.0949 µM",20.7%
same,"viability, T/C","second compound 0.00949 µM, first compound 0.3 µM",11.8%
same,"viability, T/C","second compound 0.03 µM, first compound 0.000949 µM",100%
same,"viability, T/C","second compound 0.03 µM, first compound 0.003 µM",79.5%
same,"viability, T/C","second compound 0.03 µM, first compound 0.00949 µM",73.9%
same,"viability, T/C","second compound 0.03 µM, first compound 0.03 µM",38.3%
same,"viability, T/C","second compound 0.03 µM, first compound 0.0949 µM",17.6%
same,"viability, T/C","second compound 0.03 µM, first compound 0.3 µM",11.6%
same,"viability, T/C","second compound 0.0949 µM, first compound 0.000949 µM",84.5%
same,"viability, T/C","second compound 0.0949 µM, first compound 0.003 µM",77.8%
same,"viability, T/C","second compound 0.0949 µM, first compound 0.00949 µM",68%
same,"viability, T/C","second compound 0.0949 µM, first compound 0.03 µM",38.5%
same,"viability, T/C","second compound 0.0949 µM, first compound 0.0949 µM",14.4%
same,"viability, T/C","second compound 0.0949 µM, first compound 0.3 µM",10.3%
same,"viability, T/C","second compound 0.3 µM, first compound 0.000949 µM",84.4%
same,"viability, T/C","second compound 0.3 µM, first compound 0.003 µM",70.1%
same,"viability, T/C","second compound 0.3 µM, first compound 0.00949 µM",56.5%
same,"viability, T/C","second compound 0.3 µM, first compound 0.03 µM",25.4%
same,"viability, T/C","second compound 0.3 µM, first compound 0.0949 µM",12.4%
same,"viability, T/C","second compound 0.3 µM, first compound 0.3 µM",7.96%
CC(=O)OC12COC1CC(O)C1(C)C(=O)C(O)C3=C(C)C(OC(=O)C(O)C(NC(=O)OC(C)(C)C)c4ccccc4)CC(O)(C(OC(=O)c4ccccc4)C21)C3(C)C (stereo unspecified) + C#Cc1c(F)ccc2cc(O)cc(-c3ncc4c(N5CC6CCC(C5)N6)nc(OCC56CCCN5CC(F)C6)nc4c3F)c12,pIC50,second compound 0.0316 µM,< 5.00
same,pIC50,second compound 0.1 µM,> 7.50
same,pIC50,second compound 0.316 µM,> 7.50
same,pIC50,second compound 1 µM,> 7.50
same,pIC50,second compound 3.16 µM,> 7.50
same,pIC50,second compound 10 µM,> 7.50
same,"viability, T/C","second compound 0.0316 µM, first compound 0.0316 µM",62.9%
same,"viability, T/C","second compound 0.0316 µM, first compound 0.1 µM",54.2%
same,"viability, T/C","second compound 0.0316 µM, first compound 0.316 µM",55%
same,"viability, T/C","second compound 0.0316 µM, first compound 1 µM",37.4%
same,"viability, T/C","second compound 0.0316 µM, first compound 3.16 µM",55.3%
same,"viability, T/C","second compound 0.0316 µM, first compound 10 µM",71.7%
same,"viability, T/C","second compound 0.1 µM, first compound 0.0316 µM",54.4%
same,"viability, T/C","second compound 0.1 µM, first compound 0.1 µM",52.1%
same,"viability, T/C","second compound 0.1 µM, first compound 0.316 µM",42.2%
same,"viability, T/C","second compound 0.1 µM, first compound 1 µM",40.9%
same,"viability, T/C","second compound 0.1 µM, first compound 3.16 µM",52.8%
same,"viability, T/C","second compound 0.1 µM, first compound 10 µM",56.9%
same,"viability, T/C","second compound 0.316 µM, first compound 0.0316 µM",45.7%
same,"viability, T/C","second compound 0.316 µM, first compound 0.1 µM",43.1%
same,"viability, T/C","second compound 0.316 µM, first compound 0.316 µM",30.8%
same,"viability, T/C","second compound 0.316 µM, first compound 1 µM",40.6%
same,"viability, T/C","second compound 0.316 µM, first compound 3.16 µM",39.9%
same,"viability, T/C","second compound 0.316 µM, first compound 10 µM",43.6%
same,"viability, T/C","second compound 1 µM, first compound 0.0316 µM",37.8%
same,"viability, T/C","second compound 1 µM, first compound 0.1 µM",36.4%
same,"viability, T/C","second compound 1 µM, first compound 0.316 µM",36.5%
same,"viability, T/C","second compound 1 µM, first compound 1 µM",32.3%
same,"viability, T/C","second compound 1 µM, first compound 3.16 µM",34.2%
same,"viability, T/C","second compound 1 µM, first compound 10 µM",29%
same,"viability, T/C","second compound 3.16 µM, first compound 0.0316 µM",37.1%
same,"viability, T/C","second compound 3.16 µM, first compound 0.1 µM",26.4%
same,"viability, T/C","second compound 3.16 µM, first compound 0.316 µM",23.6%
same,"viability, T/C","second compound 3.16 µM, first compound 1 µM",30.3%
same,"viability, T/C","second compound 3.16 µM, first compound 3.16 µM",30.7%
same,"viability, T/C","second compound 3.16 µM, first compound 10 µM",23.2%
same,"viability, T/C","second compound 10 µM, first compound 0.0316 µM",30.2%
same,"viability, T/C","second compound 10 µM, first compound 0.1 µM",26.5%
same,"viability, T/C","second compound 10 µM, first compound 0.316 µM",23.4%
same,"viability, T/C","second compound 10 µM, first compound 1 µM",25.6%
same,"viability, T/C","second compound 10 µM, first compound 3.16 µM",28.6%
same,"viability, T/C","second compound 10 µM, first compound 10 µM",28.2%
CCc1c2c(nc3ccc(O)cc13)-c1cc3c(c(=O)n1C2)COC(=O)[C@]3(O)CC + C#Cc1c(F)ccc2cc(O)cc(-c3ncc4c(N5CC6CCC(C5)N6)nc(OCC56CCCN5CC(F)C6)nc4c3F)c12,pIC50,second compound 0.0316 µM,7.50
same,pIC50,second compound 0.1 µM,7.62
same,pIC50,second compound 0.316 µM,7.82
same,pIC50,second compound 1 µM,8.18
same,pIC50,second compound 3.16 µM,8.48
same,pIC50,second compound 10 µM,8.46
same,"viability, T/C","second compound 0.0316 µM, first compound 0.000949 µM",100%
same,"viability, T/C","second compound 0.0316 µM, first compound 0.003 µM",97.3%
same,"viability, T/C","second compound 0.0316 µM, first compound 0.00949 µM",76.1%
same,"viability, T/C","second compound 0.0316 µM, first compound 0.03 µM",51.3%
same,"viability, T/C","second compound 0.0316 µM, first compound 0.0949 µM",29.3%
same,"viability, T/C","second compound 0.0316 µM, first compound 0.3 µM",17.7%
same,"viability, T/C","second compound 0.1 µM, first compound 0.000949 µM",74.1%
same,"viability, T/C","second compound 0.1 µM, first compound 0.003 µM",86.4%
same,"viability, T/C","second compound 0.1 µM, first compound 0.00949 µM",70.2%
same,"viability, T/C","second compound 0.1 µM, first compound 0.03 µM",44.9%
same,"viability, T/C","second compound 0.1 µM, first compound 0.0949 µM",39.4%
same,"viability, T/C","second compound 0.1 µM, first compound 0.3 µM",31.7%
same,"viability, T/C","second compound 0.316 µM, first compound 0.000949 µM",72.8%
same,"viability, T/C","second compound 0.316 µM, first compound 0.003 µM",74.9%
same,"viability, T/C","second compound 0.316 µM, first compound 0.00949 µM",53%
same,"viability, T/C","second compound 0.316 µM, first compound 0.03 µM",45%
same,"viability, T/C","second compound 0.316 µM, first compound 0.0949 µM",35.4%
same,"viability, T/C","second compound 0.316 µM, first compound 0.3 µM",36%
same,"viability, T/C","second compound 1 µM, first compound 0.000949 µM",59.3%
same,"viability, T/C","second compound 1 µM, first compound 0.003 µM",66%
same,"viability, T/C","second compound 1 µM, first compound 0.00949 µM",44.3%
same,"viability, T/C","second compound 1 µM, first compound 0.03 µM",36%
same,"viability, T/C","second compound 1 µM, first compound 0.0949 µM",29.5%
same,"viability, T/C","second compound 1 µM, first compound 0.3 µM",30.8%
same,"viability, T/C","second compound 3.16 µM, first compound 0.000949 µM",56.3%
same,"viability, T/C","second compound 3.16 µM, first compound 0.003 µM",50.6%
same,"viability, T/C","second compound 3.16 µM, first compound 0.00949 µM",40.8%
same,"viability, T/C","second compound 3.16 µM, first compound 0.03 µM",32.7%
same,"viability, T/C","second compound 3.16 µM, first compound 0.0949 µM",31.5%
same,"viability, T/C","second compound 3.16 µM, first compound 0.3 µM",30.4%
same,"viability, T/C","second compound 10 µM, first compound 0.000949 µM",58.6%
same,"viability, T/C","second compound 10 µM, first compound 0.003 µM",52.5%
same,"viability, T/C","second compound 10 µM, first compound 0.00949 µM",38.3%
same,"viability, T/C","second compound 10 µM, first compound 0.03 µM",41%
same,"viability, T/C","second compound 10 µM, first compound 0.0949 µM",29.2%
same,"viability, T/C","second compound 10 µM, first compound 0.3 µM",22.8%
